Test results published in patent publication US20260335345A1, “COMPOSITION FOR IMPROVING NICOTINAMIDE MONONUCLEOTIDE PRODUCTION” (MEIJI HOLDINGS CO., LTD., priority 2022, published 2026).

Tests used:
[1] = cited from earlier work
[2] = tested on: human feces #1 to #3 (human fecal-derived gut microbiota); assay: NMN production by human fecal cultures in GAM evaluation medium with 0.5% carbohydrate (Test Example 2); assay type: cell-based; conditions: 37 °C, anaerobic, 12 hours; for NMN Concentration (Avg Value): GAM medium, average of human feces #1 to #3, only substance of its classification; for NMN concentration in culture (FIG. 2), in words: average of human feces #1 to #3
Procedure: 1 mg of human feces (#1 to 3) collected from different individuals was added to 1 mL of GAM medium supplemented with glucose SO that the final concentration was 0.5%, and cultured at 37 °C in an anaerobic glove box for 12 hours, and then the NMN concentration in the culture solution was measured. As the GAM medium, GAM semi-fluid medium for saccharolysis (manufactured by Nissui Pharmaceutical Co., Ltd.) was dissolved in water to a predetermined concentration, filtered through a 0.8 μm filter, and autoclaved at 115 °C for 15 minutes. The NMN concentration was measured by the following method. That is, first, the supernatant obtained by centrifuging the culture solution was filtered through a 0.22 μm filter, and then the filtrate was mixed with methanol (final concentration: 80 v/v %) and allowed to stand on ice for 30 minutes. Next, the supernatant obtained by centrifuging this was dried using a centrifugal evaporator. Next, the obtained dried product was dissolved in an ammonium acetate solution and subjected to a liquid chromatograph mass spectrometer (LC-MS/MS) for analysis under the following conditions to measure the NMN concentration. (LC-MS/MS analysis conditions)
First, each evaluation medium was prepared by adding any one of the carbohydrates shown in Table 1 below to the GAM medium (without glucose added) so that the final concentration was 0.5%. As a comparative example, an evaluation medium to which distilled water (DW) was added instead of carbohydrate was also prepared. Next, 1 mg of the same human feces #1 to #3 as in Test Example 1 was added to 1 mL of the evaluation medium, and cultured at 37 °C in an anaerobic glove box for 12 hours. After culturing, the NMN concentration in the culture solution was measured by liquid chromatograph mass spectrometer (LC-MS/MS) by the method described in Test Example 1.

[3] = tested on: human gut microbiota in human flora mice; assay: NMN concentration in feces of human flora mice given kestose (Test Example 4); assay type: in vivo; conditions: 5% kestose aqueous solution ad libitum
Procedure: 1 mg of human feces (#1 to 3) collected from different individuals was added to 1 mL of GAM medium supplemented with glucose SO that the final concentration was 0.5%, and cultured at 37 °C in an anaerobic glove box for 12 hours, and then the NMN concentration in the culture solution was measured. As the GAM medium, GAM semi-fluid medium for saccharolysis (manufactured by Nissui Pharmaceutical Co., Ltd.) was dissolved in water to a predetermined concentration, filtered through a 0.8 μm filter, and autoclaved at 115 °C for 15 minutes. The NMN concentration was measured by the following method. […]
Using kestose (manufactured by Meiji Food Materia Co., Ltd.), the effect of improving NMN production in the intestine (large intestine) of human flora mice, which were germ-free mice transplanted with human gut microbiota, was evaluated. […] Next, the mixed supernatant was dried using a centrifugal evaporator, the obtained dried product was dissolved in an ammonium acetate solution, filtered through a 0.22 μm filter, and then the NMN concentration in the filtrate was measured by liquid chromatograph mass spectrometer (LC-MS/MS) by the method described in Test Example 1 to calculate the NMN concentration (ng/mL) in the feces.

[4] = NMN administration; cited from earlier work
[5] = tested on: mice with type II diabetes; conditions: type II diabetes induced by a high-fat diet; cited from earlier work
aged mice [6] = conditions: cited from earlier work
aged mice [7] = conditions: cited from earlier work; remark: listed apart in the source
[8] = tested on: inflammatory bowel disease; conditions: in vivo; cited from earlier work

In the case of `O=C[C@H](O)[C@@H](O)[C@H](O)CO` [xylose], the “absorption in the small intestine” value [1] is listed as “completely absorbed into the body in the small intestine”.

For `O=C(CO)[C@@H](O)[C@@H](O)[C@H](O)CO` [Tagatose, D-Tagatose], the “NMN Concentration (Avg Value)” value [2] was 100 ng/mL.

For `CC(=O)N[C@H]1[C@H]([C@H](O)[C@H](O)CO)O[C@@](O[C@H]2[C@@H](O)[C@@H](CO)O[C@@H](O[C@H]3[C@H](O)[C@@H](O)C(O)O[C@@H]3CO)[C@@H]2O)(C(=O)O)C[C@@H]1O` (some centres unmarked) [sialyllactose, 3′-Sialyllactose], the “NMN concentration in culture (FIG. 2), in words” value (“NMN concentration in culture” for short) [2] was “relatively low NMN concentration”.

For inulin, the “NMN Concentration (Avg Value)” value [2] was 70 ng/mL.

With `OC[C@H]1O[C@@](CO)(OC[C@@]2(O[C@H]3O[C@H](CO)[C@@H](O)[C@H](O)[C@H]3O)O[C@H](CO)[C@@H](O)[C@@H]2O)[C@@H](O)[C@@H]1O` [kestose, 1-Kestose] the “NMN concentration in culture” value [2] was “higher NMN concentrations than glucose and sucrose”, the “amount of NMN produced by human gut microbiota in vivo” value [3] was “increases the amount of NMN produced by human gut microbiota in vivo” and the “NMN concentration in feces vs Day 0” value ([3]; Day 1, 3, and 9 (FIG. 4)) was “higher on Day 1, 3, and 9”.

With `OC[C@H]1O[C@@H](O[C@H]2[C@H](O)[C@@H](O)[C@@H](O[C@]3(CO)O[C@H](CO)[C@@H](O)[C@@H]3O)O[C@@H]2CO)[C@H](O)[C@@H](O)[C@H]1O` [lactosucrose, Lactosucrose] the “NMN concentration in culture” value [2] was “higher NMN concentrations than glucose and sucrose”.

For `OC[C@H]1O[C@H](OC[C@H]2O[C@H](O[C@]3(CO)O[C@H](CO)[C@@H](O)[C@@H]3O)[C@H](O)[C@@H](O)[C@@H]2O)[C@H](O)[C@@H](O)[C@H]1O` [raffinose, Raffinose], the “NMN concentration in culture” value [2] was “higher NMN concentrations than glucose and sucrose”.

For `OC[C@H]1O[C@@H](O[C@H]2[C@H](O)[C@@H](O)C(O)O[C@@H]2CO)[C@H](O)[C@@H](O)[C@@H]1O` (stereo partly drawn) [cellobiose, D-Cellobiose], the “NMN concentration in culture” value [2] was “higher NMN concentrations than glucose and sucrose”.

In the case of `O=C[C@H](O)[C@@H](O)[C@H](O)[C@H](O)CO` [glucose, D-Glucose], the “absorption in the small intestine” value [1] is given as “completely absorbed into the body in the small intestine” and the “decomposition and absorption in the upper digestive tract in vivo” value [1] is given as “decomposed and absorbed in the upper digestive tract in vivo”.

For `OC[C@H]1O[C@@](CO)(O[C@H]2O[C@H](CO)[C@@H](O)[C@H](O)[C@H]2O)[C@@H](O)[C@@H]1O` [sucrose, D-Sucrose], the “decomposition and absorption in the upper digestive tract in vivo” value [1] is listed as “decomposed and absorbed in the upper digestive tract in vivo”.

In the case of `NC(=O)c1ccc[n+]([C@@H]2O[C@H](COP(=O)([O-])O)[C@@H](O)[C@H]2O)c1` [NMN, β-nicotinamide mononucleotide], the “age-related declines in organ function and dementia of the Alzheimer type” value [4] is listed as “improved age-related declines in liver function, renal function, skeletal muscle function, and cardiac function, as well as dementia of the Alzheimer type”, the “gene expression related to oxidative stress, inflammatory response, and circadian rhythm” value [5] is listed as “restored gene expression related to oxidative stress, inflammatory response, and circadian rhythm” and the “glucose tolerance, hepatic insulin sensitivity” value [5] is listed as “improved glucose tolerance disorder and hepatic insulin sensitivity”. For the same compound, the constipation (aged mice [6]) was “improved constipation”, the “effects of NMN administration in aged mice” value (aged mice [7]) was “suppressed age-related obesity, improved energy metabolism, and improved insulin resistance, lipid metabolism, eye function, bone density, and immune function” and the “age-related changes in gene expression” value (aged mice [7]; skeletal muscle, fat, and liver) was “suppression of age-related changes in gene expression in skeletal muscle, fat, and liver”.

For `NC(=O)c1ccc[n+]([C@@H]2O[C@H](COP(=O)([O-])OP(=O)(O)OC[C@H]3O[C@@H](n4cnc5c(N)ncnc54)[C@H](O)[C@@H]3O)[C@@H](O)[C@H]2O)c1` [NAD, nicotinamide adenine dinucleotide], the “effect in improving inflammatory bowel disease” value [8] is given as “effective in improving inflammatory bowel disease”.
